In brackets after ≈: the same amount, converted by molar mass. Where a SMILES comes first, the peptide text is derived from it.
Key:
E. coli 2678 = experiment: MIC, broth dilution; assay type: cell-based, Escherichia coli; conditions: CLSI broth dilution, MHB, 37°C, 20 h, OD630, at least three repeats; clinical isolate, ESBL
From the text: (§1) All experiments were repeated at least three times.

E. coli ATCC35218 = experiment: MIC, broth dilution; assay type: cell-based, Escherichia coli; conditions: CLSI broth dilution, MHB, 37°C, 20 h, OD630, at least three repeats; standard strain
From the text: as §1

E. coli 2687 = experiment: MIC, broth dilution; assay type: cell-based, Escherichia coli; conditions: CLSI broth dilution, MHB, 37°C, 20 h, OD630, at least three repeats; clinical isolate, ESBL
From the text: as §1

[1] = system: K. pneumoniae ATCC 700603; experiment: MIC, broth dilution; assay type: cell-based, Klebsiella pneumoniae; conditions: CLSI broth dilution, MHB, 37°C, 20 h, OD630, at least three repeats; standard strain
Protocol: as §1
(§2) To study the influence of physiological ions on the antimicrobial activities of the peptides, The MICs of the peptides were also determined against the standard bacterial strains cultured in MHB containing various salts at their physiological concentrations (150 mM NaCl, 4.5 mM KCl, 1 mM MgCl2, 2 mM CaCl2, 6 μM NH4HCO3, and 4 μM FeCl3) ([Ma et al., 2016]).

P. aeruginosa 9042 = experiment: MIC, broth dilution; assay type: cell-based, Pseudomonas aeruginosa; conditions: CLSI broth dilution, MHB, 37°C, 20 h, OD630, at least three repeats; clinical isolate
From the text: as §1

P. aeruginosa 9014 = experiment: MIC, broth dilution; assay type: cell-based, Pseudomonas aeruginosa; conditions: CLSI broth dilution, MHB, 37°C, 20 h, OD630, at least three repeats; clinical isolate, CRE, MDR
From the text: as §1

S. epidermidis 888 = experiment: MIC, broth dilution; assay type: cell-based; conditions: CLSI broth dilution, MHB, 37°C, 20 h, OD630, at least three repeats; clinical isolate
From the text: as §1

E. faecalis 901 = experiment: MIC, broth dilution; assay type: cell-based; conditions: CLSI broth dilution, MHB, 37°C, 20 h, OD630, at least three repeats; clinical isolate
From the text: as §1

S. epidermidis 6943 = experiment: MIC, broth dilution; assay type: cell-based; conditions: CLSI broth dilution, MHB, 37°C, 20 h, OD630, at least three repeats; clinical isolate, MRSE
From the text: as §1

S. epidermidis 9092 = experiment: MIC, broth dilution; assay type: cell-based; conditions: CLSI broth dilution, MHB, 37°C, 20 h, OD630, at least three repeats; clinical isolate, MRSE
From the text: as §1

[2] = system: human red blood cells (hRBCs); experiment: Hemolytic activity determination; assay type: cell-based; conditions: hRBCs in 0.9% sodium chloride, 37°C, 1 h, OD540, 1% Triton X-100 = 100%, three independent experiments
Protocol: Fresh human red blood cells (hRBCs) were collected in a sterile borosilicate glass tube covered with sodium citrate as the anticoagulating agent. […] Two-fold dilutions of the peptides were prepared in 0.9% sodium chloride to 100 μl and mixed with equal volumn of hRBC suspension to final peptide concentrations ranging from 12.5 to 200 μg ml^–1. After co-incubation at 37°C for 1 h, the samples were centrifuged (2,000 × g, 4°C, 20 min), and the supernatant (100 μl) was taken for optical density (OD540) measurements (Asample). The hRBCs assayed with 0.9% sodium chloride (Ablank) or 1% Triton X-100 (Apositive) were applied as 0% and 100% hemolysis, respectively. Three independent experiments were performed and the percent hemolysis was calculated according to the following equation ([Yin et al., 2012]; [Li et al., 2016]):
Hemolysis(%)=100*(Asample-Ablank)/(Apositive-Ablank)

E. faecalis ATCC 29212 = experiment: MIC, broth dilution; assay type: cell-based; conditions: CLSI broth dilution, MHB, 37°C, 20 h, OD630, at least three repeats; standard strain
Protocol: as §1, §2

P. aeruginosa ATCC 27853 = experiment: MIC, broth dilution; assay type: cell-based, Pseudomonas aeruginosa; conditions: CLSI broth dilution, MHB, 37°C, 20 h, OD630, at least three repeats; standard strain
Protocol: as §1, §2

A. baumannii 906 = experiment: MIC, broth dilution; assay type: cell-based, Acinetobacter baumannii; conditions: CLSI broth dilution, MHB, 37°C, 20 h, OD630, at least three repeats; clinical isolate, CRE, MDR
From the text: as §1

A. baumannii 13012 = experiment: MIC, broth dilution; assay type: cell-based, Acinetobacter baumannii; conditions: CLSI broth dilution, MHB, 37°C, 20 h, OD630, at least three repeats; clinical isolate, CRE, MDR
From the text: as §1

A. baumannii 9068 = experiment: MIC, broth dilution; assay type: cell-based, Acinetobacter baumannii; conditions: CLSI broth dilution, MHB, 37°C, 20 h, OD630, at least three repeats; clinical isolate, CRE, MDR
From the text: as §1

A. baumannii 13079 = experiment: MIC, broth dilution; assay type: cell-based, Acinetobacter baumannii; conditions: CLSI broth dilution, MHB, 37°C, 20 h, OD630, at least three repeats; clinical isolate, CRE, MDR
From the text: as §1

E. faecium 898 = experiment: MIC, broth dilution; assay type: cell-based, Enterococcus faecium; conditions: CLSI broth dilution, MHB, 37°C, 20 h, OD630, at least three repeats; clinical isolate
From the text: as §1

E. coli ATCC25922 = experiment: MIC, broth dilution; assay type: cell-based, Escherichia coli; conditions: CLSI broth dilution, MHB, 6.25 × 10^5 cfu per ml, 37°C, 20 h, OD630, at least three repeats
S. aureus 4188 = experiment: MIC, broth dilution; assay type: cell-based, Staphylococcus aureus; conditions: CLSI broth dilution, MHB, 37°C, 20 h, OD630, at least three repeats; clinical isolate, penicillin-resistant
From the text: as §1

S. aureus 9124 = experiment: MIC, broth dilution; assay type: cell-based, Staphylococcus aureus; conditions: CLSI broth dilution, MHB, 37°C, 20 h, OD630, at least three repeats; clinical isolate, MRSA
From the text: as §1

S. aureus ATCC 25923 = experiment: MIC, broth dilution; assay type: cell-based, Staphylococcus aureus; conditions: CLSI broth dilution, MHB, 37°C, 20 h, OD630, at least three repeats; standard strain
From the text: as §1

S. aureus 1176 = experiment: MIC, broth dilution; assay type: cell-based, Staphylococcus aureus; conditions: CLSI broth dilution, MHB, 37°C, 20 h, OD630, at least three repeats; clinical isolate
From the text: as §1

S. aureus ATCC29213 = experiment: MIC, broth dilution; assay type: cell-based, Staphylococcus aureus; conditions: CLSI broth dilution, MHB, 6.25 × 10^5 cfu per ml, 37°C, 20 h, OD630, at least three repeats
Protocol: as §1, §2

K. pneumoniae 9126 = experiment: MIC, broth dilution; assay type: cell-based, Klebsiella pneumoniae; conditions: CLSI broth dilution, MHB, 37°C, 20 h, OD630, at least three repeats; clinical isolate, CRE
From the text: as §1

A. baumannii ATCC 19606 = experiment: MIC, broth dilution; assay type: cell-based, Acinetobacter baumannii; conditions: CLSI broth dilution, MHB, 37°C, 20 h, OD630, at least three repeats; standard strain
Protocol: as §1, §2

A. baumannii = conditions: summary of Table 4
Protocol: The MIC determination was performed using the broth dilution method according to the guidelines of the Clinical and Laboratory Standards Institute (CLSI) ([Cao et al., 2012]; [Mourtada et al., 2019]). Briefly, the bacterial cells were incubated in Mueller-Hinton broth (MHB, Oxoid) at 37°C and 150 rpm, after overnight incubation, the bacteria were transferred to new broth until the exponential phase of growth (OD630 = 0.4). After that, the bacteria were diluted with fresh MHB to 160 μl and prepared in a sterile 96-well polypropylene plate to achieve a final concentration of 6.25 × 10^5 colony forming units (cfu) per ml. Two-fold dilutions of the peptides in 0.9% sodium chloride (40 μl) were added to each well to achieve the final peptide concentrations ranging from 1.25 to 80 μg ml^–1. […] All experiments were repeated at least three times.

[3] = system: ESBL-producing E. coli, CRE- and MDR P. aeruginosa, CRE- and MDR A. baumannii; experiment: MIC, summary over resistant gram-negative strains; assay type: cell-based; conditions: summary of Table 4
From the text: as §1

Row | SMILES | MIC (E. coli 2678) | MIC (E. coli ATCC35218) | MIC (E. coli 2687) | MIC [1] | MIC (P. aeruginosa 9042) | MIC (P. aeruginosa 9014) | MIC (S. epidermidis 888) | MIC (E. faecalis 901) | MIC (S. epidermidis 6943) | MIC (S. epidermidis 9092) | MIC (E. faecalis ATCC 29212) | MIC (P. aeruginosa ATCC 27853) | MIC (A. baumannii 906) | MIC (A. baumannii 13012) | MIC (A. baumannii 9068) | MIC (A. baumannii 13079) | MIC (E. faecium 898) | MIC (E. coli ATCC25922) | MIC (S. aureus 4188) | MIC (S. aureus 9124) | further results
1 | CC[C@H](C)[C@H](NC(=O)[C@H](CCCNC(=N)N)NC(=O)[C@H](CCCCN)NC(=O)[C@@H](NC(=O)[C@@H](N)Cc1ccccc1)[C@@H](C)CC)C(=O)N[C@@H](C)C(=O)N[C@@H](CCCNC(=N)N)C(=O)N[C@@H](CC(C)C)C(=O)N[C@@H](CC(C)C)C(=O)N[C@@H](CCCNC(=N)N)C(=O)N[C@@H](CCCCN)C(=O)N[C@H](C(=O)N[C@@H](Cc1ccccc1)C(N)=O)[C@@H](C)CC [BmKn2-7] (H-FIKRIARLLRKIF-NH2) | 20 µg/mL (≈ 12 µM) | 10 µg/mL (≈ 5.98 µM) | 10 µg/mL (≈ 5.98 µM) | 10 µg/mL (≈ 5.98 µM) | 20 µg/mL (≈ 12 µM) | 10 µg/mL (≈ 5.98 µM) | 5 µg/mL (≈ 2.99 µM) | 5 µg/mL (≈ 2.99 µM) | 5 µg/mL (≈ 2.99 µM) | 5 µg/mL (≈ 2.99 µM) | 5 µg/mL (≈ 2.99 µM) | 10 µg/mL (≈ 5.98 µM) | 5 µg/mL (≈ 2.99 µM) | 5 µg/mL (≈ 2.99 µM) | 5 µg/mL (≈ 2.99 µM) | 2.5 µg/mL (≈ 1.49 µM) | 5 µg/mL (≈ 2.99 µM) | 10 µg/mL (≈ 5.98 µM) | 5 µg/mL (≈ 2.99 µM) | 5 µg/mL (≈ 2.99 µM) | percent hRBC hemolysis ([2]; peptide 25 μg ml^–1): 6.9%; percent hRBC hemolysis ([2]; peptide 100 μg ml^–1): 41.0%; MIC (S. aureus ATCC 25923): 5 µg/mL (≈ 2.99 µM); MIC (S. aureus 1176): 5 µg/mL (≈ 2.99 µM); MIC (S. aureus ATCC29213): 5 µg/mL (≈ 2.99 µM); MIC (K. pneumoniae 9126): 10 µg/mL (≈ 5.98 µM); MIC (A. baumannii ATCC 19606): 5 µg/mL (≈ 2.99 µM)
2 | CC[C@H](C)[C@H](NC(=O)[C@H](C)NC(=O)CNC(=O)[C@@H](NC(=O)[C@@H](N)Cc1ccccc1)[C@@H](C)CC)C(=O)N[C@@H](C)C(=O)N[C@@H](CCCNC(=N)N)C(=O)N[C@@H](CC(C)C)C(=O)N[C@@H](CC(C)C)C(=O)N[C@@H](CO)C(=O)N[C@@H](CCCCN)C(=O)N[C@H](C(=O)N[C@@H](Cc1ccccc1)C(N)=O)[C@@H](C)CC [BmKn2] (H-FIGAIARLLSKIF-NH2) | >80 µg/mL | >80 µg/mL | >80 µg/mL | >80 µg/mL | >80 µg/mL | >80 µg/mL | 5 µg/mL (≈ 3.45 µM) | 10 µg/mL (≈ 6.91 µM) | 5 µg/mL (≈ 3.45 µM) | 5 µg/mL (≈ 3.45 µM) | 10 µg/mL (≈ 6.91 µM) | >80 µg/mL | 10 µg/mL (≈ 6.91 µM) | 10 µg/mL (≈ 6.91 µM) | 10 µg/mL (≈ 6.91 µM) | 10 µg/mL (≈ 6.91 µM) | 10 µg/mL (≈ 6.91 µM) | > 80 µg/mL | 5 µg/mL (≈ 3.45 µM) | 2.5 µg/mL (≈ 1.73 µM) | percent hRBC hemolysis ([2]; peptide 25 μg ml^–1): 91.8%; MIC against A. baumannii (A. baumannii): 5–10 μg ml^–1; MIC (S. aureus ATCC 25923): 5 µg/mL (≈ 3.45 µM); MIC (S. aureus 1176): 2.5 µg/mL (≈ 1.73 µM); MIC (S. aureus ATCC29213): 10 µg/mL (≈ 6.91 µM); MIC (K. pneumoniae 9126): >80 µg/mL; MIC (A. baumannii ATCC 19606): 10 µg/mL (≈ 6.91 µM)
3 | CC[C@H](C)[C@H](NC(=O)[C@H](CCCNC(=N)N)NC(=O)[C@H](CCCNC(=N)N)NC(=O)[C@@H](NC(=O)[C@@H](N)Cc1ccccc1)[C@@H](C)CC)C(=O)N[C@@H](C)C(=O)N[C@@H](CCCNC(=N)N)C(=O)N[C@@H](CC(C)C)C(=O)N[C@@H](CC(C)C)C(=O)N[C@@H](CCCNC(=N)N)C(=O)N[C@@H](CCCNC(=N)N)C(=O)N[C@H](C(=O)N[C@@H](Cc1ccccc1)C(N)=O)[C@@H](C)CC [BmKn2-7R] (H-FIRRIARLLRRIF-NH2) | 10 µg/mL (≈ 5.78 µM) | 10 µg/mL (≈ 5.78 µM) | 10 µg/mL (≈ 5.78 µM) | 5 µg/mL (≈ 2.89 µM) | 5 µg/mL (≈ 2.89 µM) | 2.5 µg/mL (≈ 1.45 µM) | 2.5 µg/mL (≈ 1.45 µM) | 5 µg/mL (≈ 2.89 µM) | 5 µg/mL (≈ 2.89 µM) | 5 µg/mL (≈ 2.89 µM) | 10 µg/mL (≈ 5.78 µM) | 5 µg/mL (≈ 2.89 µM) | 2.5 µg/mL (≈ 1.45 µM) | 2.5 µg/mL (≈ 1.45 µM) | 5 µg/mL (≈ 2.89 µM) | 2.5 µg/mL (≈ 1.45 µM) | 2.5 µg/mL (≈ 1.45 µM) | 10 µg/mL (≈ 5.78 µM) | 5 µg/mL (≈ 2.89 µM) | 5 µg/mL (≈ 2.89 µM) | MIC against ESBL E. coli, CRE/MDR P. aeruginosa, CRE/MDR A. baumannii [3]: 2.5–10 μg ml^–1; percent hRBC hemolysis ([2]; peptide 100 μg ml^–1): 73.1%; MIC (S. aureus ATCC 25923): 5 µg/mL (≈ 2.89 µM); MIC (S. aureus 1176): 5 µg/mL (≈ 2.89 µM); MIC (S. aureus ATCC29213): 5 µg/mL (≈ 2.89 µM); MIC (K. pneumoniae 9126): 5 µg/mL (≈ 2.89 µM); MIC (A. baumannii ATCC 19606): 2.5 µg/mL (≈ 1.45 µM)
